Earlier results in patent US20130316464A1, “ANALYTE […] AND METHOD” (priority 2010, published 2013).

System: erythrocytes
Details: whole blood

## CC(C)c1cccc(C(C)C)c1O [propofol, 2,6-diisopropylphenol]
  proportion of the propofol partitioned into / bound to blood cells (erythrocytes): 30-40%
